This test has as its system Rat2 fibroblasts. Briefly: Time-lapse videomicroscopy random migration assay (cell speed, polarity). In kind it is cell-based, rat. As to conditions: Rat2 cells. The procedure:
Cells adapted to microscopy media (Life Technologies, Rockville, Md.) as described above were trypsinized, counted, and resuspended in microscopy media at 7.14×10^3 cells/mL. 1.4 mL (10,000 cells) of this cell suspension was added to a ΔT dish (Bioptechs Inc., Butler, Pa.) that had previously been coated overnight with 10 μg/mL fibronectin (Becton Dickinson) at 4° C. and then blocked with lmg/mL cell-culture-grade BSA (Sigma, St. Louis, Mo.). Cells were allowed to attach and spread for 1 hour at 37° C. before movies were initiated. 10x phase contrast movies were 4.5 hours long with a frame taken every five minutes. A custom time-lapse collection script written in IPLabs was used to automate microscope and camera function. Light was shutter controlled. […] Cell paths were generated from the calculated centroid positions and parameters (speed and membrane flow) were calculated from the resulting path file. Speed was calculated using the Central Difference Method in DIAS, which is equivalent to a root mean squared calculation. […]
Rat 2 cells were exposed to 0, 5 nM, 25 nM, 50 nM, or 500 nM cytochalasin D and motility was measured. One set of cells received no cytochalasin D. Other cells received a low dose of cytochalasin D (e.g. 5 nM or 25 nM) or a high dose of cytochalasin D. (e.g. 500 nM) The motility of the treated cells was assessed using the motility assay described above.

Our source for the cell speed values is patent US6716597B2, “Methods and products for regulating cell motility” (priority 2000, dated 2004).

Turning to `C=C1[C@@H](C)[C@H]2[C@H](Cc3ccccc3)NC(=O)[C@]23[C@H](OC(C)=O)/C=C/[C@@](C)(O)C(=O)[C@@H](C)C/C=C/[C@H]3[C@@H]1O` [cytochalasin D, reference compound], the cell speed result runs as follows: (25 nM (low dose)) “increased”; (500 nM (high dose)) “decreased”.
